Measured values from patent US7378545B2, “Crystallization of amino acids using ultrasonic agitation” (Abbott Laboratories, priority 2002, dated 2008).

Columns and labels:
Assay type in all cases: physicochemical
[1] = Nucleation temperature / metastable zone during cooling of L-thyroxine solutions
Excerpt: The extent of the metastable zone depends on the rate of cooling. The lower the cooling rate, the higher the temperature at which nucleation begins.

[2] = Degradation of L-thyroxine in crystallization solution at elevated temperature; conditions: concentrations above 10% not feasible
Procedure: Concentrations of L-thyroxine above 10% were not feasible due to degradation at above 65° C.

[3] = Effect of ultrasonification intensity on crystal size (22 L crystallizer, 24 kHz sonotrode)
Procedure: In order to verify the findings from Example 5, additional experiments were carried out in a 22 L double-jacket glass crystallizer equipped with a draft tube and a 200 mm marine type propeller (Ne=0.3). A custom-made sonotrode (24 kHz) was used along with a UIP250 sound generator. In this example, the exact sonification power was not determined, although it was estimated to be in the order of 25-50 W. The findings are illustrated in Table 7.

[4] = Effect of ultrasonification on crystallization, particle size by Aerosizer time-of-flight (2000 W, 20 kHz sonotrode)
Excerpt: L-thyroxine crystals were obtained by batch-wise cooling crystallization of a standard solution of L-thyroxine.
To crystallize L-thyroxine, the standard solution of L-thyroxine was heated to a specified temperature, introduced into a crystallizer and cooled at a controlled rate. As the solution cooled and L-thyroxine crystallized, the solution was exposed to ultrasonification.
A sonotrode complete with generator and transducer capable of emitting an radial ultrasonic pressure wave at a 20 kHz frequency and 2000 W of power (UIP 2000 industrial processor with block sonotrode) was mounted in the crystallizer. The L-thyroxine solution was prepared and agitated at 20 RPM. The temperature was stabilized at 50° C., and the ultrasonic generator was turned on in continuous mode and at 100% amplitude. The cooling sequence was then initiated and the temperature of the solution was lowered at 0.5° C. per minute to a final set point of 10° C. The period of time that the ultrasound was applied to the solution as it was cooling to this set point was varied. For the first trial, a controlled crystallization was allowed to occur without any application of ultrasound to the product solution. For the second trial, the ultrasound remained on until a temperature of 30° C. was reached. At this point the ultrasound was turned off while the solution continued to cool to 10° C. When 10° C. was reached, the slurry was sampled and heated back up to 50° C. to redissolve the solid. The third trial proceeded in the same manner, but when the solution reached a temperature of 26° C., the ultrasound was turned off and the solution continued to cool to 10° C. The trials continued in this manner, changing the temperature at which the ultrasound was turned off by 4° C. each time until for the last trial, the solution was sonified throughout cooling. During this last trial, ultrasound was maintained at the cooling set point for a period of one hour, with samples being pulled at the half hour and one hour mark. This slurry was then transferred to a filter dryer for filtering, washing and drying. Once the product was dry, a sample was taken to determine the additional effects on particle size of the manufacturing process downstream of the crystallizer.
Particle size analysis for all samples was performed with an Aerosizer aerodynamic time-of-flight particle-sizing instrument.
Samples for all of the trials shown in the table above were taken from the crystallizer in the slurry form. A portion of these slurry samples was filtered, washed with ethanol and dried at ambient temperature. A reduction in particle size on a volume basis was apparent between trial 1, which underwent no sonification, and trials 2-7, which underwent various periods of ultrasound application. The magnitude of this reduction is roughly three fold.

[5] = Effect of ultrasonification intensity on crystal size (one-liter flask in ultrasonic bath, ≈40 kHz); conditions: for C.V. Coefficient of variation = (X86 − X14)/(2 * X50): unit assumed
Procedure: A one-liter round bottom glass flask was filled with the standard L-thyroxine solution and cooled under stirring. The flask was then immersed in an ultrasonic bath (Sonorex Super Bandelin DK102, ≈40 kHz) to study the influence of different sonification intensities on the size of L-thyroxine crystals. The frequency and power dissipated by the bath was measured using a hydrophone. As an additional parameter, the onset point of sonification and its duration was also varied.

[6] = Parametric sensitivity of L-thyroxine crystallization, particle size (one liter glass crystallizer, no ultrasound)
Procedure: The following trials were conducted to test the effects of various parameters other than ultrasonification on the crystallization of L-thyroxine. These trials were performed in a one liter glass crystallizer equipped with three baffles and a 60 mm marine type propeller (Ne=0.4). While most trials were run with the standard solution given in Example 1, propanol concentration was varied in trials 5 and 6. The final temperature for all trials was 10° C.

[7] = Solubility of L-thyroxine in standard solution (cooling/redissolving, light probe)
Procedure: The solubility of L-thyroxine was determined by studying a standard solution of L-thyroxine.
The L-thyroxine solution was then transferred to a glass crystallizer and cooled until the L-thyroxine crystallized spontaneously. Then, the temperature of the solution was slowly raised until the crystallized L-thyroxine was redissolved. The crystallization status of the solution was determined using a light probe. The light probe was comprised of two parallel rods with a light source and a photocell. The light probe measured the amount of crystals in the solution by determining the change in the amount of light that was absorbed or scattered by the solution. In solutions with crystals, the photocells registered a weakened beam as compared to beams sent through clear solutions.
Data obtained from these experiments is plotted in FIG. 1. The solubility of L-thyroxine in the standard solution is given by black circles, interpolated by the solid line.
The temperature of saturation at standard conditions (4.84% w/w) was 42° C. […] A theoretical yield of 83% of L-thyroxine was calculated. […] At a concentration of 20% propanol or 4% sodium carbonate, the solubility of L-thyroxine at lower temperatures was not determined. Under these conditions, sodium carbonate co-precipitated with sodium L-thyroxine at around 10° C.

[8] = trial 1: ultrasound off, cooled 50 to 10° C. at 0.5° C. per minute
[9] = trial 2: ultrasound on at 50° C., off at 30° C.
[10] = trial 3: ultrasound on at 50° C., off at 26° C.
[11] = trial 4: ultrasound on at 50° C., off at 22° C.
[12] = trial 5: ultrasound on at 50° C., off at 18° C.
[13] = trial 6: ultrasound on at 50° C., off at 14° C.
[14] = trial 7: ultrasound on at 50° C., off at 10° C.
[15] = trial 3: 10% US switched on at 32.5° C. (1K above expected nucleation temperature)
[16] = trial 5: 50% US switched on at 32.5° C.
[17] = trial 6: 100% US (roughly 0.18 W/cm^2)
[18] = trial 7: 100% US switched on at 32.5° C.
[19] = trial 8: 100% US switched off immediately after nucleation

Compound: N[C@@H](Cc1cc(I)c(Oc2cc(I)c(O)c(I)c2)c(I)c1)C(=O)O.[Na] [sodium L-thyroxine]
- point of nucleation of the aqueous solution ([1]; in the absence of ultrasound): approximately 32 °C

Compound: N[C@@H](Cc1cc(I)c(Oc2cc(I)c(O)c(I)c2)c(I)c1)C(=O)O [L-thyroxine]
- metastable zone (range of supercooling) ([1]; aqueous solutions during cooling, depends on rate of cooling): 5-11 °C
- increase in the temperature at which solids appeared ([1]; plant scale, sonified crystallizations, cooling rate 0.5° C. per minute): 9-18 °C
- decrease in the metastable zone ([1]; sonified solution, cooling rate 0.17-0.5° C. per minute): 1-3 °C
- Nucleation Temperature ([1]; trial 1: ultrasound off): 25 °C
- Nucleation Temperature ([1]; trial 2: ultrasound on): 35 °C
- Nucleation Temperature ([1]; trial 3: ultrasound on): 38 °C
- Nucleation Temperature ([1]; trial 4: ultrasound on): 38 °C
- Nucleation Temperature ([1]; trial 5: ultrasound on): 34 °C
- Nucleation Temperature ([1]; trial 6: ultrasound on): 36 °C
- Nucleation Temperature ([1]; trial 7: ultrasound on): 34 °C
- temperature of degradation [2]: above 65 °C
- reduction of particle size ([3]; smallest ultrasound intensity versus no ultrasound): 50%
- Crystal size ([3]; trial 1: No Ultrasound): 28 μm
- Crystal size ([3]; trial 2: 10% Ultrasound): 15 μm
- Crystal size ([3]; trial 3: 100% Ultrasound): 14 μm
- Mean Particle Size (Number) [4, 8]: 3 µm
- Mean Particle Size Volume [4, 8]: 20.8 µm
- Mean Particle Size (Number) [4, 9]: 2.4 µm
- Mean Particle Size Volume [4, 9]: 6.6 µm
- Mean Particle Size (Number) [4, 10]: 2.3 µm
- Mean Particle Size Volume [4, 10]: 5.4 µm
- Mean Particle Size (Number) [4, 11]: 2.5 µm
- Mean Particle Size Volume [4, 11]: 5.7 µm
- Mean Particle Size (Number) [4, 12]: 2.4 µm
- Mean Particle Size Volume [4, 12]: 5.3 µm
- Mean Particle Size (Number) [4, 13]: 2.4 µm
- Mean Particle Size Volume [4, 13]: 5.2 µm
- Mean Particle Size (Number) [4, 14]: 3.1 µm
- Mean Particle Size Volume [4, 14]: 6.1 µm
- reduction in particle size on a volume basis ([4]; trials 2-7 (ultrasound) versus trial 1 (no sonification)): roughly three fold
- Average Size ([5]; trial 1: 0% US intensity): 46 μm
- Undercooling ([5]; trial 1: 0% US intensity): 13.6 °C
- C.V. Coefficient of variation = (X86 − X14)/(2 * X50) ([5]; trial 1: 0% US intensity): 74%
- Average Size ([5]; trial 2: 10% US): 13 μm
- Undercooling ([5]; trial 2: 10% US): 12.1 °C
- C.V. Coefficient of variation = (X86 − X14)/(2 * X50) ([5]; trial 2: 10% US): 70%
- Average Size [5, 15]: 11 μm
- Undercooling [5, 15]: 12.8 °C
- C.V. Coefficient of variation = (X86 − X14)/(2 * X50) ([5]; trial 3: 10% US switched on at 32.5° C.): 84%
- Average Size ([5]; trial 4: 50% US): 13 μm
- Undercooling ([5]; trial 4: 50% US): 10.6 °C
- C.V. Coefficient of variation = (X86 − X14)/(2 * X50) ([5]; trial 4: 50% US): 65%
- Average Size [5, 16]: 11 μm
- Undercooling [5, 16]: 12.5 °C
- C.V. Coefficient of variation = (X86 − X14)/(2 * X50) [5, 16]: 69%
- Average Size [5, 17]: 11 μm
- Undercooling [5, 17]: 11.9 °C
- C.V. Coefficient of variation = (X86 − X14)/(2 * X50) ([5]; trial 6: 100% US): 61%
- Average Size [5, 18]: 11 μm
- Undercooling [5, 18]: 12.5 °C
- C.V. Coefficient of variation = (X86 − X14)/(2 * X50) [5, 18]: 62%
- Average Size [5, 19]: 22 μm
- Undercooling [5, 19]: 10.9 °C
- C.V. Coefficient of variation = (X86 − X14)/(2 * X50) [5, 19]: 74%
- Particle size ([6]; trial 1: cooling 20/10 K/h, 0.5 W/kg, dried 10 mbar 50° C.): 15 μm
- Particle size ([6]; trial 1: cooling 20/10 K/h, 0.5 W/kg, dried 1013 mbar 25° C. openly in lab): 30 μm
- Particle size ([6]; trial 2: cooling 20/10 K/h, 5 W/kg (stirrer rate increased 3x), dried 10 mbar 35° C.): 18 μm
- Particle size ([6]; trial 3: cooling 30 K/h, 0.5 W/kg, dried 10 mbar 35° C.): 19 μm
- Particle size ([6]; trial 4: cooling 30 K/h, 5 W/kg, dried 1013 mbar RT): 10 μm
- Particle size ([6]; trial 5: 20% propanol, cooling 30 K/h, 5 W/kg, dried 50 mbar 35° C.): <20 μm
- Particle size ([6]; trial 6: 10% propanol, cooling 30 K/h, 5 W/kg, dried 50 mbar 35° C.): >30 μm
- Particle size ([6]; trial 7: cooling 30 K/h, 0.5 W/kg, dried 1013 mbar RT, rinsed with 90/10 EtOH/water): 16 μm
- Particle size ([6]; trial 8: cooling 30 K/h, 5 W/kg, dried 50 mbar 35° C., rinsed with 90/10 EtOH/water): 11 μm
- Particle size ([6]; trial 9: cooling 30 K/h, 2 W/kg, dried 50 mbar 35° C., rinsed with 90/10 EtOH/water): 13 μm
- Particle size ([6]; trial 10: as above, 1 hour stirring at final temperature): 15 μm
- Particle size ([6]; trial 10: as above, 2 hour stirring at final temperature): 15 μm
- Particle size ([6]; trial 10: cooling 30 K/h, 0.5 W/kg, dried 50 mbar 35° C.): 15 μm
- effect of solution composition on solubility ([7]; higher sodium carbonate or propanol concentrations): the inverse effect is observed
- effect of solution composition on solubility ([7]; reduction of sodium carbonate or propanol content of the initial solution): reduces L-thyroxine solubility
- temperature of saturation ([7]; standard solution, 4.84% w/w L-thyroxine, 14.0% n-propanol, 2.85% sodium carbonate): 42 °C
- solubility ([7]; standard solution, end of the cooling curve, 10° C.): 0.78%
